# Data as given in patent publication US20230210929A1, “MATERIALS AND METHODS FOR BLOCKING MALARIA INFECTION AND TRANSMISSION” (THE FLORIDA INTERNATIONAL UNIVERSITY BOARD OF TRUSTEES, priority 2021, published 2023).
# Values joined by “and” are separate entries in the source; they are usually repeats but may differ in a detail not shown here. Equal entries are not always repeated. “Also recorded” adds a separate entry of the source.
# How the values were obtained:
# [1] = system: interaction between FREP1 and P. falciparum-infected cell lysate; assay: ELISA of FREP1 binding to P. falciparum-infected cell lysate; conditions: pulixin 5 μg/mL
# Description: Small molecules that inhibited the FREP1-Plasmodium interaction to block malaria transmission were screened. In brief, P. falciparum-infected (NF54 obtained from the BEI Resources, Manassas, Va., USA) red blood cells (iRBCs) were cultured for 15-17 days. The iRBCs suspended in PBST (PBS containing 0.2% Tween-20) was homogenized by ultra-sonication with six cycles of 10 s of pulse and 50 s of resting on ice for each period. The lysates were centrifuged at 8,000×g for 2 min to remove insoluble materials and cellular debris. Then, 96-well ELISA plates were coated with 50 μL of the iRBC lysate (2 mg/mL protein) overnight at 4° C. After coating, the wells were blocked with 100 μL of 2% bovine serum albumin (BSA) in PBS per well for 1.5 h at room temperature (RT). After removal of the blocking solution, 49 μL of FREP1 (10 μg/mL) in blocking buffer (PBS containing 2% BSA) and 1 μL of fungal extract (2 mg/mL in DMSO) were added to each well, followed by incubation for 1 h at RT. […] Finally, each well was developed with 50 μL of pNPP substrate (Sigma-Aldrich) until the colors were visible, and absorbance at 405 nm was measured. […]
# The 15-17-day cultured P. falciparum infected cell lysate was prepared as described above. […] Rabbit anti-FREP1 polyclonal antibodies quantified the retained FREP1 as described above. After reaction with the pNPP, A405 was measured. […]
# [2] = system: P. falciparum transmission to An. gambiae; assay: Standard membrane feeding assay (SMFA), transmission-blocking activity by feeding; type: in vivo
# Description: The 15-17-day-old cultured P. falciparum iRBCs containing 2-3% stage V gametocytes were collected and diluted with new O+ type human blood, with the same volume of heat-inactivated AB+ human serum added. The final concentration of stage V gametocytes in the blood was around 0.2%. Then, 3 μL of the candidate fungal extract or pulixin with different concentrations in DMSO was mixed with 297 μL of infected blood and was used to feed about 100 3-5-day-old An. gambiae G3 female mosquitoes for 30 min, and the engorged mosquitoes were maintained with 8% sugar in a BSL-2 insectary (28° C., 12 h light/dark cycle, 80% humidity). The midguts were dissected 7 days after infection and stained with 0.1% mercury dibromofluorescein disodium salt in PBS. The oocysts were counted under a light microscope.
# [3] = system: P. falciparum gametocytes; assay: Conversion ratio from gametocytes to ookinetes; type: cell-based; conditions: pulixin 40 μM
# Description: P. falciparum (NF54) was cultured in the complete RPMI-1640 medium containing 4% new 0+ human red blood cells, 10% human AB+ serum, and 12.5 μg/mL of hypoxanthine in a candle jar at 37° C. To prepare P. falciparum ookinetes, 5 mL of day-15 cultured P. falciparum containing ˜2% stage V gametocytes were transferred into a 15 mL centrifuge tube and centrifuged at 650×g for 5 min at RT. The pellet was then resuspended in 500 μL of sterile ookinete culture medium (RPMI-1640 medium containing 20% human serum AB+, 50 μg/mL of hypoxanthine, 2 g/L NaHCO3). The resuspended cells were transferred into a well of a 12-well plate and incubated at room temperature on a shaker (20 rpm) for 24 h to generate ookinetes. Finally, cell mixtures of the ookinetes, gametocytes, and asexual-stage P. falciparum were collected by centrifugation at 650×g for 5 min at RT.
# The 15-17-day-old cultured P. falciparum was collected by centrifugation at 500×g for 3 min. The pellets were suspended in ookinete culture medium (incomplete RPMI-1640 containing 20% human serum AB+, 50 μg/mL of hypoxanthine, and 2 g/L of NaHCO3) to obtain 10^5 gametocytes per μL. […] After incubation on a shaker (20 rpm) at RT for 18-24 h, the ookinetes and gametocytes were counted using a Giemsa-stained blood smear under a bright-field microscope. The ratios of gametocytes to ookinetes were calculated.
# [4] = system: asexual-stage P. falciparum; assay: Inhibition assay of asexual Plasmodium falciparum proliferation; type: cell-based
# Description: The 3-5-day cultured iRBC were mixed with fresh human RBCs (AB+ type) in complete RPMI-1640 to prepare cultures with 0.5% parasitemia and 2% hematocrit. Pulixin was dissolved in DMSO at the concentration of 1 mg/mL and diluted with DMSO to various levels. A 2 μL pulixin solution mixed with 1 mL of cell culture was added to a 24-well plate. The plate was incubated in a candle jar at 37° C. Approximately 48 h later, the medium was replaced with fresh medium containing same concentration of pulixin. Parasitemia was recorded at 24, 48, 72, and 96 h post-incubation. The test for each concentration was replicated three times. EC50 was determined by analyzing the dose-response curve obtained with GraphPad Prism (GraphPad Software, CA, USA). The assays were repeated.
# [5] = system: human embryonic kidney 293 (HEK293) cells; assay: General cytotoxicity MTT assay; type: cell-based; conditions: 24 h
# Description: A drug could kill a cell or inhibit the cell proliferation through general cytotoxicity. Vybrant® MTT (3-(4,5-dimethylthiazol-2-yl)-2,5-diphenyl tetrazolium bromide) Cell Proliferation Assay (Thermo Fisher) was used to analyze living cells. The human embryonic kidney 293 (HEK293) cell line was used as the experimental cells. About 20,000 HEK293 cells in 100 μL of culture medium (RPMI 1640+2 mM glutamine+10% fetal bovine serum) were seeded per well in 96-well microplates. After incubation at 37° C. with 5% CO2 for 24 h, 1 μL of pulixin in DMSO at various dilutions was added into each well to obtain a final concentration of 0, 1, 3, 10, 30, and 100 μg/mL. Three replicates were conducted for each concentration. Following the incubation at 37° C. with 5% CO2 for 24 h, 10 μL, of MTT (5 mg/mL in PBS) was added into each well and incubated for 4 h at 37° C. with 5% CO2. All but 25 μL of the medium was removed from the wells, 100 μL of DMSO was added to each well and incubated at 37° C. for 10 min to dissolve formazan crystals for measurement. Optical density was measured at an absorbance wavelength of 540 nm. The data were analyzed using ANOVA in Prism 8 (GraphPad, San Diego, Calif.). The experiment was independently performed twice.
smiles,measurement,setting,value
"Cc1cc(N)cc2oc(=O)c3c(O)cc(O)cc3c12 [pulixin, 3-amino-7,9-dihydroxy-1-methyl-6H-benzo[c]chromen-6-one]",inhibition of the interaction between the FREP1 protein and P. falciparum-infected cell lysate,[1],about 50%
same,EC50,"[2]; Anopheles gambiae, 168 h, read-out: EC50, concentration that inhibits 50% of infection intensity (number of oocysts per mosquito)",11 µM
same,inhibition of malaria transmission,[2]; pulixin 40 μM in infected blood,completely inhibited; also recorded: completely blocked
same,conversion of gametocytes to ookinetes versus control,[3],no significant difference; also recorded: did not inhibit
same,EC50,"[4]; Plasmodium falciparum, 96 h, parasitemia on day 4, read-out: EC50 inhibiting development of asexual-stage P. falciparum",0.012 µg/mL and 47 nM
same,P. falciparum-infected cells on day 4 versus control (0 μg/mL),[4]; pulixin greater than 0.01 μg/mL,Significantly fewer
same,density of living HEK293 cells versus control,[5]; pulixin 0 to 30 μg/mL (116 μM),No significant difference
same,density of living HEK293 cells versus other concentrations,[5]; pulixin 100 μg/mL,significant reduction; also recorded: significantly lower
